# Measurements taken from US20260193293A1, “PEPTIDES CAPABLE OF INHIBITING PROTEIN-PROTEIN INTERACTIONS AT GABAB1A SUBUNIT AND USES THEREOF” (UNIVERSITY OF COPENHAGEN, priority 2022, published 2026).
# Where two headings read alike, the source gives them in different places. Non-standard residues stand in square brackets, D forms with d. Residues, ends and D or L forms follow the SMILES beside them. NMeE = CN[C@@H](CCC(=O)O)C(=O)O; Sar = CNCC(=O)O
# Target: Sushi domains (SD1/2) protein
# Assay: Fluorescence polarization (FP) competition assay with AJAP-1probe, calculated Ki
# Assay type: binding
# Method in brief: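 Competition against 25 nM TAMRA-labelled peptide probe binding SD1/2, in PBS pH 7.4 with 1% BSA at rt, read at 530/580 nm. IC50 from sigmoidal dose-response fits, at least triplicate; Ki calculated from IC50 using probe Kd from saturation binding.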
# [1] = Table 7, Ala-, D-amino acids and N-methylation scans of APPWT, read-out: Ki (nM) mean ± SEM
# [2] = Table 11, deep mutational scanning validation variants of AJAP-1WT, read-out: Ki (nM) mean ± SEM
# [3] = Table 5, elongation and truncation scan of AJAP-1 binding epitope, read-out: Ki (nM) mean ± SEM
# [4] = Table 13, peptides for affinity maturation, read-out: Ki (nM) mean ± SEM
# [5] = Table 3, SPOT hit validation and previously reported peptides, read-out: Ki (nM) mean ± SEM
smiles,measurement,setting,value
CC[C@H](C)[C@H](NC(=O)[C@H](C)NC(=O)[C@H](Cc1c[nH]c2ccccc12)NC(C)=O)C(=O)N[C@H](C(=O)N[C@@H](Cc1c[nH]c2ccccc12)C(=O)NCC(=O)N1CCC[C@H]1C(=O)N[C@H](C(=O)N[C@H](C(=O)N[C@@H](CO)C(=O)N[C@@H](CCCNC(=N)N)C(=O)N[C@@H](CCC(=O)O)C(=O)N[C@@H](CC(=O)O)C(=O)NCC(N)=O)C(C)C)[C@@H](C)O)C(C)C (Ac-WAIVWGPTVSREDG-NH2),Ki,"Table 6, elongation and truncation scan of PIANP binding epitope, read-out: Ki (nM) mean ± SEM",> 62500 nM
CC(=O)N[C@@H](CCC(=O)O)C(=O)N[C@@H](C)C(=O)N[C@@H](CC(=O)O)C(=O)N[C@@H](CO)C(=O)N[C@@H](CC(=O)O)C(=O)N[C@H](C(=O)N[C@@H](Cc1c[nH]c2ccccc12)C(=O)N[C@@H](Cc1c[nH]c2ccccc12)C(=O)NCC(=O)NCC(=O)N[C@@H](C)C(=O)N[C@@H](CC(=O)O)C(=O)N[C@H](C(=O)N[C@@H](CC(=O)O)C(N)=O)[C@@H](C)O)C(C)C (Ac-EADSDVWWGGADTD-NH2),Ki,[1],1240 ± 65 nM
CC[C@H](C)[C@H](NC(=O)[C@H](Cc1ccccc1)NC(=O)[C@H](CCC(=O)O)N(C)C(=O)[C@@H](NC(=O)[C@H](CCC(=O)O)NC(C)=O)[C@@H](C)O)C(=O)N[C@@H](C)C(=O)N[C@@H](Cc1c[nH]c2ccccc12)C(=O)NCC(=O)N1CCC[C@H]1C(=O)N[C@H](C(=O)NCC(=O)N[C@@H](CC(=O)O)C(=O)N[C@@H](CCC(=O)O)C(=O)N[C@@H](CC(=O)O)C(N)=O)[C@@H](C)O [ET(N-Me-E)FIAWGPTGDED] (Ac-ET[NMeE]FIAWGPTGDED-NH2),Ki,"Table 8, Ala-, D-amino acids and N-methylation scans of AJAP-1WT, read-out: Ki (nM) mean ± SEM",159 ± 3 nM
CC(=O)N[C@@H](C)C(=O)N[C@@H](CC(=O)O)C(=O)N[C@@H](CC(=O)O)C(=O)N[C@@H](CO)C(=O)N[C@@H](CC(=O)O)C(=O)N[C@H](C(=O)N[C@@H](Cc1c[nH]c2ccccc12)C(=O)N[C@@H](Cc1c[nH]c2ccccc12)C(=O)NCC(=O)NCC(=O)N[C@@H](C)C(=O)N[C@@H](CC(=O)O)C(=O)N[C@H](C(=O)N[C@@H](CC(=O)O)C(N)=O)[C@@H](C)O)C(C)C (Ac-ADDSDVWWGGADTD-NH2),Ki,[1],803 ± 5 nM
CC[C@H](C)[C@H](NC(=O)[C@H](C)NC(=O)[C@H](Cc1c[nH]c2ccccc12)NC(=O)[C@@H](NC(C)=O)C(C)C)C(=O)N[C@H](C(=O)N[C@@H](Cc1c[nH]c2ccccc12)C(=O)NCC(=O)N1CCC[C@H]1C(=O)N[C@H](C(=O)N[C@H](C(=O)N[C@@H](CO)C(=O)N[C@@H](CCCNC(=N)N)C(=O)N[C@@H](CCC(=O)O)C(=O)N[C@@H](CC(=O)O)C(N)=O)C(C)C)[C@@H](C)O)C(C)C [VWAIVWGPTVSRED] (Ac-VWAIVWGPTVSRED-NH2),Ki,"Table 12, deep mutational scanning validation variants of PIANPWT, read-out: Ki (nM) mean ± SEM",412 ± 20 nM
CC[C@H](C)[C@H](NC(=O)[C@H](Cc1ccccc1)NC(=O)[C@H](CCC(=O)O)NC(=O)[C@@H](NC(=O)[C@H](CC(N)=O)NC(C)=O)[C@@H](C)O)C(=O)N[C@@H](C)C(=O)N[C@@H](Cc1c[nH]c2ccccc12)C(=O)NCC(=O)N1CCC[C@H]1C(=O)N[C@H](C(=O)NCC(=O)N[C@@H](CC(=O)O)C(=O)N[C@@H](CCC(=O)O)C(=O)N[C@@H](CC(=O)O)C(N)=O)[C@@H](C)O [NTEFIAWGPTGDED] (Ac-NTEFIAWGPTGDED-NH2),Ki,[2],62 ± 3 nM
CC[C@H](C)[C@H](NC(=O)[C@H](Cc1ccccc1)NC(=O)[C@H](CCC(=O)O)NC(=O)[C@@H](NC(=O)[C@H](CCC(=O)O)NC(=O)[C@@H](NC(C)=O)[C@@H](C)O)[C@@H](C)O)C(=O)N[C@@H](C)C(=O)N[C@@H](Cc1c[nH]c2ccccc12)C(=O)NCC(=O)N1CCC[C@H]1C(=O)N[C@H](C(=O)NCC(=O)N[C@@H](CC(=O)O)C(=O)N[C@@H](CCC(=O)O)C(=O)N[C@@H](CC(=O)O)C(=O)N[C@@H](C)C(=O)N[C@@H](CC(C)C)C(N)=O)[C@@H](C)O (Ac-TETEFIAWGPTGDEDAL-NH2),Ki,[3],47 ± 2 nM
CC(=O)N[C@@H](CCC(=O)O)C(=O)N[C@@H](CC(=O)O)C(=O)N[C@@H](CC(=O)O)C(=O)N[C@@H](CO)C(=O)N[C@@H](CC(=O)O)C(=O)N[C@H](C(=O)N[C@@H](Cc1c[nH]c2ccccc12)C(=O)N[C@@H](Cc1c[nH]c2ccccc12)C(=O)NCC(=O)N(C)CC(=O)N[C@@H](C)C(=O)N[C@@H](CC(=O)O)C(=O)N[C@H](C(=O)N[C@@H](CC(=O)O)C(N)=O)[C@@H](C)O)C(C)C (Ac-EDDSDVWWG[Sar]ADTD-NH2),Ki,[1],161 ± 2 nM
same,Ki,[4],161 ± 2 nM
CC(=O)N[C@@H](CO)C(=O)N[C@@H](C)C(=O)N[C@@H](CC(=O)O)C(=O)N[C@@H](C)C(=O)N[C@@H](CCC(=O)O)C(=O)N[C@@H](CCC(=O)O)C(=O)N[C@@H](CC(=O)O)C(=O)N[C@@H](CC(=O)O)C(=O)N[C@@H](CO)C(=O)N[C@@H](CC(=O)O)C(=O)N[C@H](C(=O)N[C@@H](Cc1c[nH]c2ccccc12)C(=O)N[C@@H](Cc1c[nH]c2ccccc12)C(=O)NCC(=O)NCC(N)=O)C(C)C [Peptide 12] (Ac-SADAEEDDSDVWWGG-NH2),Ki,"AJAP-1probe, read-out: Ki",1300 nM
same,Ki,[5],1300 ± 28 nM
CC[C@H](C)[C@H](NC(=O)[C@H](Cc1ccccc1)NC(=O)[C@H](CCC(=O)O)NC(=O)[C@@H](NC(=O)[C@H](CCC(=O)O)NC(=O)[C@@H](NC(C)=O)[C@@H](C)O)[C@@H](C)O)C(=O)N[C@@H](C)C(=O)N[C@@H](Cc1c[nH]c2ccccc12)C(=O)NCC(=O)N1CCC[C@H]1C(=O)N[C@H](C(=O)NCC(=O)N[C@@H](CC(=O)O)C(=O)N[C@@H](CCC(=O)O)C(=O)N[C@@H](CC(=O)O)C(=O)N[C@@H](C)C(N)=O)[C@@H](C)O (Ac-TETEFIAWGPTGDEDA-NH2),Ki,[3],36 ± 1.7 nM
CC[C@H](C)[C@H](NC(=O)[C@H](Cc1ccccc1)NC(=O)[C@H](CCC(=O)O)NC(=O)[C@@H](NC(=O)[C@H](CCC(=O)O)NC(=O)[C@@H](NC(=O)[C@@H](NC(C)=O)[C@@H](C)O)[C@@H](C)O)[C@@H](C)O)C(=O)N[C@@H](C)C(=O)N[C@@H](Cc1c[nH]c2ccccc12)C(=O)NCC(=O)N1CCC[C@H]1C(=O)N[C@H](C(=O)NCC(=O)N[C@@H](CC(=O)O)C(=O)N[C@@H](CCC(=O)O)C(=O)N[C@@H](CC(=O)O)C(N)=O)[C@@H](C)O (Ac-TTETEFIAWGPTGDED-NH2),Ki,[3],32 ± 1.4 nM
CC(=O)N[C@@H](CCC(=O)O)C(=O)N[C@@H](CCC(=O)O)C(=O)N[C@@H](CC(=O)O)C(=O)N[C@@H](CC(=O)O)C(=O)N[C@@H](CO)C(=O)N[C@@H](CC(=O)O)C(=O)N[C@H](C(=O)N[C@@H](Cc1c[nH]c2ccccc12)C(=O)N[C@@H](Cc1c[nH]c2ccccc12)C(=O)NCC(=O)NCC(=O)N[C@@H](C)C(=O)N[C@@H](CC(=O)O)C(=O)N[C@H](C(N)=O)[C@@H](C)O)C(C)C (Ac-EEDDSDVWWGGADT-NH2),Ki,"Table 4, truncation and elongation scans of APP epitope, read-out: Ki (nM) mean ± SEM",585 ± 10 nM
CC(=O)N[C@@H](CCC(=O)O)C(=O)N[C@@H](CC(=O)O)C(=O)N[C@@H](CC(=O)O)C(=O)N[C@@H](CO)C(=O)N[C@@H](CC(=O)O)C(=O)N[C@H](C(=O)N[C@@H](Cc1c[nH]c2ccccc12)C(=O)N[C@@H](Cc1c[nH]c2ccccc12)C(=O)N[C@@H](Cc1ccc(O)cc1)C(=O)NCC(=O)N(C)CC(=O)N[C@H](C(=O)NCC(=O)N[C@@H](CC(=O)O)C(=O)N[C@@H](CCC(=O)O)C(=O)N[C@@H](CC(=O)O)C(N)=O)[C@@H](C)O)C(C)C (Ac-EDDSDVWWYG[Sar]TGDED-NH2),Ki,[4],138 ± 5 nM
CC[C@H](C)[C@H](NC(=O)[C@H](Cc1ccccc1)NC(=O)[C@H](CCC(=O)O)NC(=O)[C@@H](NC(=O)[C@H](CCC(=O)O)NC(=O)[C@@H](NC(=O)[C@@H](NC(C)=O)[C@@H](C)O)[C@@H](C)O)[C@@H](C)O)C(=O)N[C@@H](C)C(=O)N[C@@H](Cc1c[nH]c2ccccc12)C(=O)NCC(=O)N1CCC[C@H]1C(=O)N[C@H](C(=O)NCC(=O)N[C@@H](CC(=O)O)C(=O)N[C@@H](CCC(=O)O)C(N)=O)[C@@H](C)O (Ac-TTETEFIAWGPTGDE-NH2),Ki,[5],73 ± 1 nM
CC(=O)N[C@@H](C)C(=O)N[C@@H](CC(=O)O)C(=O)N[C@@H](C)C(=O)N[C@@H](CCC(=O)O)C(=O)N[C@@H](CCC(=O)O)C(=O)N[C@@H](CC(=O)O)C(=O)N[C@@H](CC(=O)O)C(=O)N[C@@H](CO)C(=O)N[C@@H](CC(=O)O)C(=O)N[C@H](C(=O)N[C@@H](Cc1c[nH]c2ccccc12)C(=O)N[C@@H](Cc1c[nH]c2ccccc12)C(=O)NCC(=O)NCC(=O)N[C@@H](C)C(N)=O)C(C)C (Ac-ADAEEDDSDVWWGGA-NH2),Ki,[5],1530 ± 46 nM
CC[C@H](C)[C@H](NC(=O)[C@H](Cc1ccccc1)NC(=O)[C@H](CCC(=O)O)NC(=O)[C@@H](NC(=O)[C@H](CCC(=O)O)NC(=O)[C@@H](NC(=O)[C@@H](NC(=O)[C@@H]1CCCN1C(=O)[C@H](CCCNC(=N)N)NC(C)=O)[C@@H](C)O)[C@@H](C)O)[C@@H](C)O)C(=O)N[C@@H](C)C(=O)N[C@@H](Cc1c[nH]c2ccccc12)C(=O)NCC(=O)N1CCC[C@H]1C(=O)N[C@H](C(=O)NCC(=O)N[C@@H](CC(=O)O)C(=O)N[C@@H](CCC(=O)O)C(=O)N[C@@H](CC(=O)O)C(N)=O)[C@@H](C)O,Ki,[3],58 ± 0.4 nM
CC[C@H](C)[C@H](NC(=O)[C@H](Cc1ccccc1)NC(=O)[C@H](CCC(=O)O)NC(=O)[C@@H](NC(=O)[C@@H](NC(C)=O)C(C)C)[C@@H](C)O)C(=O)N[C@@H](C)C(=O)N[C@@H](Cc1c[nH]c2ccccc12)C(=O)NCC(=O)N1CCC[C@H]1C(=O)N[C@H](C(=O)NCC(=O)N[C@@H](CC(=O)O)C(=O)N[C@@H](CCC(=O)O)C(=O)N[C@@H](CC(=O)O)C(N)=O)[C@@H](C)O [VTEFIAWGPTGDED],Ki,[2],67 ± 1 nM
CC(=O)N(C)[C@@H](CCC(=O)O)C(=O)N[C@@H](CC(=O)O)C(=O)N[C@@H](CC(=O)O)C(=O)N[C@@H](CO)C(=O)N[C@@H](CC(=O)O)C(=O)N[C@H](C(=O)N[C@@H](Cc1c[nH]c2ccccc12)C(=O)N[C@@H](Cc1c[nH]c2ccccc12)C(=O)NCC(=O)NCC(=O)N[C@@H](C)C(=O)N[C@@H](CC(=O)O)C(=O)N[C@H](C(=O)N[C@@H](CC(=O)O)C(N)=O)[C@@H](C)O)C(C)C (Ac-[NMeE]DDSDVWWGGADTD-NH2),Ki,[1],670 ± 6 nM
